Starred links: 1 amine or outer side, 2 acyl side, 3 side chain; linkers in the order of their positions; H or OH if unused. Positions of bridges follow the written chain, without caps; N, C: chain ends. Non-standard residues stand in square brackets, D forms with d. Residues, ends and D or L forms follow the SMILES beside them. *: point of attachment. βAsp = O=C(O)[C@H](CC(=O)[*:2])N[*:1]; His(π-Me) = Cn1cncc1C[C@H](N)C(=O)O; For = O=C*
How the values were obtained:
[1] = tested on: M. tuberculosis (GyrA D94N); assay type: cell-based, Mycobacterium tuberculosis
[2] = tested on: Mycobacterium tuberculosis H37Rv mc^26020 gyrA G88S; assay: MIC, broth microdilution; assay type: cell-based
[3] = tested on: Mycobacterium tuberculosis H37Rv mc^26020 gyrA G88C; assay: MIC, broth microdilution; assay type: cell-based
[4] = tested on: M. tuberculosis bacA (Rv1819c) mutants (L469P, L470P and S577R); assay type: cell-based, Mycobacterium tuberculosis

Compound: C[C@@H](O)[C@H](NC(=O)[C@H](Cc1c[nH]c2ccccc12)NC=O)C(=O)N[C@H](CCCNC(=N)N)C(=O)N[C@@H]1C(=O)N[C@@H](Cc2cncn2C)C(=O)N[C@H](C(=O)O)CC(=O)N[C@H](CO)C(=O)N[C@@H](Cc2ccccc2)C(=O)NCC(=O)N[C@H](CCCNC(=N)N)C(=O)N[C@@H](CO)C(=O)N[C@H](C(=O)O)CC(=O)O[C@@H]1C [evybactin] (For-WT[dR]T[His(π-Me)][βAsp][dS]FG[dR]S[βAsp]; ester 4-C)
- effect of GyrA D94N mutation on susceptibility [1]: did not have any effect

Compound: COc1c(N2C[C@@H]3CCCN[C@@H]3C2)c(F)cc2c(=O)c(C(=O)O)cn(C3CC3)c12 [moxifloxacin]
- susceptibility of GyrA G88S mutant [2]: more susceptible
- susceptibility of GyrA G88C mutant [3]: resistant

Compound: bleomycin
- MIC (after shift) [4]: 1 µg/mL

Reference: PMC9844538 (Nature chemical biology, 2022)
